Literature values, collected in US10385405B2, “Gene expression markers of tumor resistance to HER2 inhibitor treatment” (GENENTECH, INC., priority 2007, dated 2019).

Experiments:
[1] = test system: trastuzumab-resistant models harboring PTEN loss or PIK3CA activating mutations
[2] = test system: incurable, locally advanced, recurrent or metastatic solid tumors

Molecule	sensitivity of trastuzumab-resistant models [1]	tolerability ([2]; given intravenously every 3 weeks)	confirmed partial responses ([2]; in vivo)	tumor regression ([2]; patients evaluable for response)	pharmacokinetics, linearity (doses of 2.0-15 mg/kg)	antibodies to pertuzumab (in vivo)
CS(=O)(=O)N1CCN(Cc2cc3nc(-c4cccc5[nH]ncc45)nc(N4CCOCC4)c3s2)CC1 [GDC-0941]	sensitive					
Pertuzumab: HER dimerization inhibitor antibody that inhibits HER2 forming heterodimers with other HER receptors		generally well tolerated	Two	3 of 20	linear	not detected
